Reference: ChEMBL document CHEMBL1201862, “PubChem BioAssay data set” (2004)
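Interpolation was linear, between the two tested concentrations surrounding the appropriate level; five concentrations were tested over 48 hours in 96-well plates. GI50 = concentration required for 50% inhibition of growth.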 The source made the active and inactive calls. Rule as the data show it: active = GI50 up to about 1.1 µM and inactive = higher.

Experiments:
Assay in all cases: NCI anticancer screen, dose series, 48 h
786-0 = system: 786-0
A498 = system: A498
A549 = system: A549
ACHN = system: ACHN
BT-549 = system: BT-549
CAKI-1 = system: CAKI-1
CCRF-CEM = system: CCRF-CEM
COLO 205 = system: COLO 205
DU-145 = system: DU-145
EKVX = system: EKVX
HCC 2998 = system: HCC 2998
HCT-116 = system: HCT-116
HCT-15 = system: HCT-15
HL-60 = system: HL-60
HOP-62 = system: HOP-62
HOP-92 = system: HOP-92
HT-29 = system: HT-29
Hs-578T = system: Hs-578T
IGROV-1 = system: IGROV-1
K562 = system: K562
KM12 = system: KM12
LOX IMVI = system: LOX IMVI
M14 = system: M14
MCF7 = system: MCF7
MDA-MB-231 = system: MDA-MB-231
MDA-MB-435 = system: MDA-MB-435
MDA-N = system: MDA-N
MOLT-4 = system: MOLT-4
Malme-3M = system: Malme-3M
NCI-H226 = system: NCI-H226
NCI-H23 = system: NCI-H23
NCI-H460 = system: NCI-H460
NCI-H522 = system: NCI-H522
NCI/ADR-RES = system: NCI/ADR-RES
OVCAR-3 = system: OVCAR-3
OVCAR-4 = system: OVCAR-4
OVCAR-5 = system: OVCAR-5
OVCAR-8 = system: OVCAR-8
PC-3 = system: PC-3
RPMI-8226 = system: RPMI-8226
RXF 393 = system: RXF 393
SF-268 = system: SF-268
SF-295 = system: SF-295
SF-539 = system: SF-539
SK-MEL-28 = system: SK-MEL-28
SK-MEL-2 = system: SK-MEL-2
SK-MEL-5 = system: SK-MEL-5
SK-OV-3 = system: SK-OV-3
SN12C = system: SN12C
SNB-19 = system: SNB-19
SNB-75 = system: SNB-75
SR = system: SR
SW-620 = system: SW-620
T47D = system: T47D
TK-10 = system: TK-10
U-251 = system: U-251
UACC-257 = system: UACC-257
UACC-62 = system: UACC-62
UO-31 = system: UO-31
DMS-114 = system: DMS-114
DMS-273 = system: DMS-273
KM-20L2 = system: KM-20L2
LXFL 529 = system: LXFL 529
M19-MEL = system: M19-MEL
SNB-78 = system: SNB-78
XF498 = system: XF498

`CC(C)C1C(=O)N(c2c(F)c(F)c(F)c(F)c2F)C(=S)N1CC[S+]([O-])c1ccccc1` (centres undefined) was tested, and the GI50 (786-0) was 16.9 µM (inactive), the GI50 (A498) was 16.6 µM (inactive) and the GI50 (A549) was 18.9 µM (inactive). For the same compound, the GI50 (ACHN) was 18.6 µM (inactive), the GI50 (BT-549) was 15.9 µM (inactive) and the GI50 (CAKI-1) was 5.19 µM (inactive). For the same compound, the GI50 (CCRF-CEM) was 18.3 µM (inactive), the GI50 (COLO 205) was 15.5 µM (inactive) and the GI50 (DU-145) was 20.7 µM (inactive). The GI50 (EKVX) was 16.4 µM (inactive), the GI50 (HCC 2998) was 8.47 µM (inactive) and the GI50 (HCT-116) was 18.8 µM (inactive). For the same compound, the GI50 (HCT-15) was 16.7 µM, the GI50 (HL-60) was 6.84 µM (inactive) and the GI50 (HOP-62) was 23.9 µM (inactive). The GI50 (HOP-92) was 9.77 µM (inactive), the GI50 (HT-29) was 14 µM (inactive) and the GI50 (Hs-578T) was 30.2 µM (inactive). For the same compound, the GI50 (IGROV-1) was 16.7 µM (inactive), the GI50 (K562) was 10.8 µM (inactive) and the GI50 (KM12) was 16.8 µM (inactive). For the same compound, the GI50 (LOX IMVI) was 14.4 µM (inactive), the GI50 (M14) was 15.7 µM (inactive) and the GI50 (MCF7) was 16.6 µM (inactive). For the same compound, the GI50 (MDA-MB-231) was 16 µM (inactive), the GI50 (MDA-MB-435) was 17.5 µM (inactive) and the GI50 (MDA-N) was 17.3 µM (inactive). The GI50 (MOLT-4) was 21.2 µM (inactive), the GI50 (Malme-3M) was 15.7 µM (inactive) and the GI50 (NCI-H226) was 20.4 µM (inactive). The GI50 (NCI-H23) was 16.8 µM (inactive), the GI50 (NCI-H460) was 19.3 µM (inactive) and the GI50 (NCI-H522) was 6.49 µM (inactive). The GI50 (NCI/ADR-RES) was 20 µM (inactive), the GI50 (OVCAR-3) was 16.6 µM (inactive) and the GI50 (OVCAR-4) was 16.3 µM (inactive). For the same compound, the GI50 (OVCAR-5) was 17.7 µM (inactive), the GI50 (OVCAR-8) was 17.1 µM (inactive) and the GI50 (PC-3) was 15.4 µM (inactive). For the same compound, the GI50 (RPMI-8226) was 18.8 µM (inactive), the GI50 (RXF 393) was 17.8 µM (inactive) and the GI50 (SF-268) was 16.7 µM (inactive). The GI50 (SF-295) was 18 µM (inactive), the GI50 (SF-539) was 19.7 µM (inactive) and the GI50 (SK-MEL-28) was 16.9 µM (inactive). The GI50 (SK-MEL-2) was 17.5 µM (inactive), the GI50 (SK-MEL-5) was 14.2 µM (inactive) and the GI50 (SK-OV-3) was 19.6 µM (inactive). For the same compound, the GI50 (SN12C) was 15.8 µM (inactive), the GI50 (SNB-19) was 18.7 µM (inactive) and the GI50 (SNB-75) was 26.4 µM (inactive). For the same compound, the GI50 (SR) was 6.22 µM (inactive), the GI50 (SW-620) was 18.3 µM (inactive) and the GI50 (T47D) was 6.78 µM (inactive). The GI50 (TK-10) was 26.9 µM (inactive), the GI50 (U-251) was 14.8 µM (inactive) and the GI50 (UACC-257) was 20.2 µM (inactive). For the same compound, the GI50 (UACC-62) was 19.7 µM (inactive) and the GI50 (UO-31) was 14.8 µM (inactive).

In the case of `CSc1sc(=S)sc1C(=O)N(C)c1ccccc1`, the GI50 (786-0) is reported as > 100 µM (inactive), the GI50 (A549) is reported as > 100 µM (inactive) and the GI50 (ACHN) is reported as > 100 µM (inactive). The GI50 (CCRF-CEM) was 56 µM (inactive), the GI50 (COLO 205) was > 100 µM (inactive) and the GI50 (DMS-114) was > 100 µM (inactive). The GI50 (DMS-273) was > 100 µM (inactive), the GI50 (EKVX) was > 100 µM (inactive) and the GI50 (HCT-116) was > 100 µM (inactive). The GI50 (HCT-15) was > 100 µM, the GI50 (HL-60) was 35.6 µM (inactive) and the GI50 (HOP-62) was > 100 µM (inactive). The GI50 (HT-29) was > 100 µM (inactive), the GI50 (IGROV-1) was > 100 µM (inactive) and the GI50 (K562) was > 100 µM (inactive). For the same compound, the GI50 (KM-20L2) was > 100 µM (inactive), the GI50 (KM12) was 91.8 µM (inactive) and the GI50 (LOX IMVI) was > 100 µM (inactive). The GI50 (LXFL 529) was > 100 µM (inactive), the GI50 (M14) was > 100 µM (inactive) and the GI50 (M19-MEL) was > 100 µM (inactive). The GI50 (MOLT-4) was 84.5 µM (inactive), the GI50 (Malme-3M) was > 100 µM (inactive) and the GI50 (NCI-H226) was > 100 µM (inactive). The GI50 (NCI-H23) was > 100 µM (inactive), the GI50 (NCI-H460) was > 100 µM (inactive) and the GI50 (NCI-H522) was 48.8 µM (inactive). For the same compound, the GI50 (OVCAR-3) was 91.8 µM (inactive), the GI50 (OVCAR-4) was > 100 µM (inactive) and the GI50 (OVCAR-5) was > 100 µM (inactive). For the same compound, the GI50 (OVCAR-8) was > 100 µM (inactive), the GI50 (RPMI-8226) was 52.7 µM (inactive) and the GI50 (RXF 393) was 81.5 µM (inactive). For the same compound, the GI50 (SF-268) was > 100 µM (inactive), the GI50 (SF-295) was > 100 µM (inactive) and the GI50 (SF-539) was > 100 µM (inactive). The GI50 (SK-MEL-28) was > 100 µM (inactive), the GI50 (SK-MEL-2) was > 100 µM (inactive) and the GI50 (SK-MEL-5) was > 100 µM (inactive). For the same compound, the GI50 (SN12C) was > 100 µM (inactive), the GI50 (SNB-19) was > 100 µM (inactive) and the GI50 (SNB-75) was 22.6 µM (inactive). The GI50 (SNB-78) was > 100 µM (inactive), the GI50 (SR) was 83 µM (inactive) and the GI50 (SW-620) was > 100 µM (inactive). For the same compound, the GI50 (TK-10) was > 100 µM (inactive), the GI50 (U-251) was > 100 µM (inactive) and the GI50 (UACC-62) was 78.7 µM (inactive). The GI50 (UO-31) was > 100 µM (inactive) and the GI50 (XF498) was > 100 µM (inactive).

With `CCN(CC)C(=O)CCn1ccc(=O)[nH]c1=O` the GI50 (786-0) was > 100 µM (inactive), the GI50 (A549) was > 100 µM (inactive) and the GI50 (ACHN) was > 100 µM (inactive). For the same compound, the GI50 (CCRF-CEM) was > 100 µM (inactive), the GI50 (COLO 205) was > 100 µM (inactive) and the GI50 (DMS-114) was > 100 µM (inactive). For the same compound, the GI50 (DMS-273) was > 100 µM (inactive), the GI50 (EKVX) was > 100 µM (inactive) and the GI50 (HCT-116) was > 100 µM (inactive). For the same compound, the GI50 (HCT-15) was > 100 µM, the GI50 (HL-60) was > 100 µM (inactive) and the GI50 (HOP-62) was > 100 µM (inactive). For the same compound, the GI50 (HT-29) was > 100 µM (inactive), the GI50 (IGROV-1) was > 100 µM (inactive) and the GI50 (K562) was > 100 µM (inactive). The GI50 (KM-20L2) was > 100 µM (inactive), the GI50 (KM12) was > 100 µM (inactive) and the GI50 (LOX IMVI) was > 100 µM (inactive). For the same compound, the GI50 (LXFL 529) was > 100 µM (inactive), the GI50 (M14) was > 100 µM (inactive) and the GI50 (M19-MEL) was > 100 µM (inactive). For the same compound, the GI50 (MOLT-4) was > 100 µM (inactive), the GI50 (Malme-3M) was > 100 µM (inactive) and the GI50 (NCI-H226) was > 100 µM (inactive). For the same compound, the GI50 (NCI-H23) was > 100 µM (inactive), the GI50 (NCI-H460) was > 100 µM (inactive) and the GI50 (NCI-H522) was > 100 µM (inactive). For the same compound, the GI50 (OVCAR-3) was > 100 µM (inactive), the GI50 (OVCAR-4) was > 100 µM (inactive) and the GI50 (OVCAR-5) was > 100 µM (inactive). The GI50 (OVCAR-8) was > 100 µM (inactive), the GI50 (RPMI-8226) was > 100 µM (inactive) and the GI50 (RXF 393) was > 100 µM (inactive). The GI50 (SF-268) was > 100 µM (inactive), the GI50 (SF-295) was > 100 µM (inactive) and the GI50 (SF-539) was > 100 µM (inactive). For the same compound, the GI50 (SK-MEL-28) was > 100 µM (inactive), the GI50 (SK-MEL-2) was > 100 µM (inactive) and the GI50 (SK-MEL-5) was > 100 µM (inactive). The GI50 (SN12C) was > 100 µM (inactive), the GI50 (SNB-19) was > 100 µM (inactive) and the GI50 (SNB-75) was 43.1 µM (inactive). The GI50 (SNB-78) was > 100 µM (inactive), the GI50 (SR) was > 100 µM (inactive) and the GI50 (SW-620) was > 100 µM (inactive). The GI50 (TK-10) was > 100 µM (inactive), the GI50 (U-251) was > 100 µM (inactive) and the GI50 (UACC-62) was > 100 µM (inactive). For the same compound, the GI50 (UO-31) was > 100 µM (inactive) and the GI50 (XF498) was > 100 µM (inactive).
